Data as given in patent US20120258944A1, “ANTIOXIDANTS FOR USE IN THERAPY” (priority 2009, published 2012).

Key:
[1] = test system: human Neutrophils and human PBMCs; experiment: Intracellular ROS, luminol luminescence with SOD and catalase, PMA or fMLF stimulated cells; assay type: cell-based; conditions: PMA or fMLF 30 ng/ml; compounds 120, 60, 30 microM; FIG. 5-8
Method: Validation was performed by stimulating cells with PMA and fMLF. When treated with the antioxidants, altered level of ROS production from the cells was measured using luminometry. Both intracellular and extracellular effect on ROS on the cells was analyzed using isoluminol (extracellular) and luminol (intracellular when co-administered with SOD and catalase) (Dahlgren et al. “Respiratory burst in human neutrophils”, Journal of Immunological Methods 232 1999; 3-14).
The luminol reagent buffer is made of HBSS buffer (with Ca^2+), luminol and SOD/Catalase.
1) Add 25 microL of antioxidants to assay plate to get proper concentrations in a total reaction volume of 100 micro-L. 2) Add 25 microL of PMA (120 ng/ml) and fMLF (120 ng/ml) to assay plate to get concentration of 30 ng/ml in a total reaction volume of 100 microL. 3) Add 50 microL of cell suspension (2 million cells/ml) to each well. Immediately after addition of cell suspension initiate luminescence measurement; the reaction starts at once when the cells are added to the assay plate. Measurement points are taken at 1-minute intervals for 25 minutes. Data is presented as AUC (Area Under Curve) by a summary of all collected measurements for each well.
FIG. 5: Intracellular ROS analyzed by Luminol (intracellular ROS) induced luminescence in human Neutrophils. ROS induced with PMA (30 ng/ml) with 200, 100 or 0 microM NAC. Concentrations of compounds 120, 60, 30 and 0 microM final concentrations.
FIG. 6: Intracellular ROS analyzed by Luminol (intracellular ROS) induced luminescence in human Neutrophils. ROS induced with fMLF (30 ng/ml) with 200, 100 or 0 microM NAC. Concentrations of compounds 120, 60, 30 and 0 microM final concentrations.
FIG. 7: Intracellular ROS analyzed by Luminol (intracellular ROS) induced luminescence in human PBMCs. ROS induced with PMA (30 ng/ml) with 200, 100 or 0 microM NAC. Concentrations of compounds 120, 60, 30 and 0 microM final concentrations.
FIG. 8: Intracellular ROS analyzed by Luminol (intracellular ROS) induced luminescence in human PBMCs. […]

[2] = ABTS radical cation assay (TEAC) in aqueous PBS buffer; conditions: 6.08 micro-M
Method: In order to investigate its aqueous phase performance, we thought that it would be interesting to determine its Trolox Equivalent Antioxidant Capacity (TEAC) (Free Rad. Biol. Med. 1999, 26, 1231-1237) which has been used to quantify the antioxidant activity of biological fluids, extracts and pure compounds. The TEAC value is defined as the concentration of Trolox which has an equivalent antioxidant potential as a 1 mM solution of the compound under investigation (Free Rad. Biol. Med. 1996, 20, 933-956).
A 2,2′-azinobis(3-ethylbenzothiazoline-6 sulphonic acid radical cation (ABTS•+) assay was used to determine relative TEAC values. To a preformed solution of ABTS•+ in PBS buffer, pH 7.4, with an absorbance slightly above 0.7 were added various amounts (3-30 microM) of organoselenium compound 1, Trolox, sodium ascorbate and N-acetylcysteine. The absorbance at 734 inn was recorded immediately after mixing and then every minute for the next 8 minutes.
Antioxidant activity as determined by the capacity of the antioxidant to decolorize the ABTS^+ radical cation was determined essentially as described in the literature (Acc. Chem. Res. 1986, 19, 194-201). […] In a typical experiment, the antioxidant (1.52 micro-L of a 3.00 mM solution in MeOH or water; final concentration=6.08 micro-M) was syringed into 0.750 mL of the ABTS^+ radical cation solution. After initial mixing, the absorbance was recorded every minute for the next eight minutes.

[3] = test system: MG-63, HEK-293, SHSY-5y, MRC-5 and CaCo-2-cells; experiment: Alamar Blue cell viability/proliferation assay; assay type: cell-based, human
Text: Alamar Blue is a non-toxic metabolic indicator for viable cells. Following uptake, the dye becomes reduced and causes a change in the colour of the cell. The colour change correlates reasonably well with the number of living cells in the sample.
Cells w/o antioxidant were used as controls.
Alamar Blue is a non-toxic metabolic indicator for viable cells. Upon uptake into the cell the dye becomes reduced and changes colour. The colour change correlates approximately with the number of living cells in the sample.

THP-1 cells = experiment: Chemiluminescence (Diogenes), ROS production in PMA stimulated THP-1 cells; assay type: cell-based, human
Text: We investigated the capacity of the material to quench ROS produced by freshly isolated human neutrophils or THP-1 cells (human acute monocytic leukemia cell line) stimulated with PMA (Phorbol Myristate Acetate). The antioxidant capacity of selenide 1 was again compared to those of Trolox, a water soluble derivative of vitamin E, which is commonly used in biological and biochemical applications to reduce oxidative stress or damage.
The generation of oxygen free radicals over time from macrophages (THP-1) was monitored for 180 minutes in 96-well white optiplates (Greiner) using a using a TECAN reader and Diogenes chemiluminescence kit (National Diagnostics). Approximately 200 000 THP-1 cells diluted in HBSS containing different concentrations of the antioxidants 1 and Trolox were added per well to a 96 well plate together with the Diogenes reagent 20 v/% (following the manufacturers recommendations) and 40 micro-M Phorbol Myristate Acetate (PMA). Luminescence intensity was read every 6 min. The measurements were commonly performed on quadruplicate samples

[4] = test system: human umbilical vein endothelial cells (HUVEC); experiment: Visual evaluation of HUVECs under the microscope (dislodging from the surface); conditions: human, 24 h
Method: Cells were harvested and resuspended in supplemented medium 200 without phenol red. 50 000 cells were added in duplicates to 96-well plates. The compounds were tested on HUVECs according to the following concentrations.
The compounds were diluted in Medium 200 from the 0.1M stock solution. The toxic effects of the compounds were tested after 24 hrs, 48 hrs and 72 hrs.
By visually looking at the cells under the microscope and estimating the dislodging from the surface, the state of the cells was evaluated.

CC1Cc2cc(O)ccc2[Se]1 (centres unmarked) [Compound 1]
antioxidative effect on intracellular ROS [1]: strong antioxidative effect | TEAC value ([2]; PBS buffer pH 7.4, after 5 min): 1.6 | number of ABTS radicals quenched by each molecule of the antioxidant ([2]; PBS buffer pH 7.4, versus reference antioxidants): clearly outperformed both sodium ascorbate and Trolox | cell growth (Alamar Blue) [3]: normal cell growth patterns | concentration until which no sign of cell death or decreased proliferation ([3]; human): 235 micro-M | effect on ROS production in THP-1 (THP-1 cells; 1, 10 and 20 micro-M, FIG. 24): clear, dose dependent, quenching/inhibiting effect | quenching of ROS from THP-1 compared with Trolox (THP-1 cells; 20 micro-M each): considerably more effective than Trolox | concentration at which cells were affected (visual) [4]: 500 µM
